Results reported in paper PMC3956282, “Binding Stoichiometry of a Recombinant Selenophosphate Synthetase with One Synonymic Substitution E197D to a Fluorescent Nucleotide Analog of ATP, TNP-ATP” (Journal of Amino Acids, 2013).

Biological target: T1, selenophosphate synthetase (SPS) (Escherichia coli, UniProt P16456, E197D)
T1 construct: gene selD; full-size selD from E. coli BL21-Gold (DE3), recombinant
Assay: competitive displacement of TNP-ATP (fluorescence)
Type: binding

T1 sequence (P16456 whole entry E197D): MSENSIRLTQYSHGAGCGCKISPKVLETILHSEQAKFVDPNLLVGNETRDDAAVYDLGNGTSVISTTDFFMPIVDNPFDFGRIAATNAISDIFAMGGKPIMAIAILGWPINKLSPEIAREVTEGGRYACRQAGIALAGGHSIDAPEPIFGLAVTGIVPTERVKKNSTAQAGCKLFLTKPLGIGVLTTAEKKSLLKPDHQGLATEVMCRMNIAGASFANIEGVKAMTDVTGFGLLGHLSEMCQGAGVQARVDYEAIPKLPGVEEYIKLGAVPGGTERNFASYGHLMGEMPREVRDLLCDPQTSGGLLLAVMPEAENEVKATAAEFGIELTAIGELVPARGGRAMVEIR

## Nc1ncnc2c1ncn2[C@@H]1O[C@H](COP(=O)(O)OP(=O)(O)OP(=O)(O)O)[C@@H](O)[C@H]1O [ATP]
  EC50: 450 µM
